In the experiment the test system is CD2F1 mice, L1210 leukemia ip, survival T/C. The experiment can be described thus: NCI In Vivo Anticancer Drug Screen. Data for tumor model L1210 Leukemia (intraperitoneal) in CD2F1 (CDF1) mice. As to conditions: higher = longer survival. Put shortly:
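In this screen, transplantable tumors were grown in mice given either the compound or its vehicle. Results were expressed as the treated measurement relative to the control measurement.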

Where [1] appears, read: endpoint: mean survival time, dose: 50.0 mg/kg/injection, schedule: Q04DX002 (ip), vehicle: saline with Tween-80.
Where [2] appears, read: endpoint: mean survival time, dose: 100.0 mg/kg/injection, schedule: Q04DX002 (ip), vehicle: saline with Tween-80.
Setting [3] is: endpoint: mean survival time, dose: 200.0 mg/kg/injection, schedule: Q04DX002 (ip), vehicle: saline with Tween-80.
Setting [4] is: endpoint: mean survival time, dose: 100.0 mg/kg/injection, schedule: Q01DX001 (ip), vehicle: saline.
Setting [5] is: endpoint: mean survival time, dose: 200.0 mg/kg/injection, schedule: Q01DX001 (ip), vehicle: saline.
Setting [6] is: endpoint: mean survival time, dose: 400.0 mg/kg/injection, schedule: Q01DX001 (ip), vehicle: saline.
The mark [7] stands for this setting: endpoint: mean survival time, dose: 6.25 mg/kg/injection, schedule: Q01DX009 (ip), vehicle: saline with Tween-80.
[8] abbreviates: endpoint: mean survival time, dose: 12.5 mg/kg/injection, schedule: Q01DX009 (ip), vehicle: saline with Tween-80.
The mark [9] stands for this setting: endpoint: mean survival time, dose: 25.0 mg/kg/injection, schedule: Q01DX009 (ip), vehicle: saline with Tween-80.
Where [10] appears, read: endpoint: mean survival time, dose: 100.0 mg/kg/injection, schedule: Q04DX003 (ip), vehicle: saline with Tween-80.
Where [11] appears, read: endpoint: mean survival time, dose: 200.0 mg/kg/injection, schedule: Q04DX003 (ip), vehicle: saline with Tween-80.
Setting [12] is: endpoint: mean survival time, dose: 400.0 mg/kg/injection, schedule: Q04DX003 (ip), vehicle: saline with Tween-80.
[13] abbreviates: endpoint: mean survival time, dose: 50.0 mg/kg/injection, schedule: Q01DX009 (ip), vehicle: saline with Tween-80.
[14] abbreviates: endpoint: mean survival time, dose: 100.0 mg/kg/injection, schedule: Q01DX009 (ip), vehicle: saline with Tween-80.

The source of these data is PubChem BioAssay AID256 (DTP/NCI, 2004).

Where “and” joins values, the source holds several entries; their conditions need not be identical. Equal entries are not always repeated. Toxic doses and inconclusive results are not listed.

For the compound `O=[N+]([O-])c1ccc2c(c1)S(=O)c1cc([N+](=O)[O-])c(Br)cc1-2` (stereo not drawn) (tested in a mixture with another compound), the T/C under setting [1] is 108 % of control, the T/C under setting [2] is 108 % of control and the T/C under setting [3] was 102 % of control.
In the case of `C=C[Si](C=C)(C=C)C=C`, the T/C by setting is: under setting [4], 101 % of control; under setting [5], 104 % of control; under setting [6], 107 % of control.
For the compound `OC(CN1CCCCC1)c1cccs1` (stereo not drawn), the T/C reads like this: under setting [7], 102 % of control; under setting [8], 98 % of control; under setting [9], 102 % of control.
With `CC[C@@]1(OC(=O)C(N)CCC(=O)O)C(=O)OCc2c1cc1n(c2=O)Cc2cc3ccccc3nc2-1` (stereo partly drawn), the T/C is 107 % of control and 108 % of control (endpoint: median survival time, dose: 6.85 mg/kg/injection, schedule: Q04DX002 (ip), vehicle: water); 120 % of control and 111 % of control (endpoint: median survival time, dose: 10.27 mg/kg/injection, schedule: Q04HX004 (iv), vehicle: water); 113 % of control (endpoint: median survival time, dose: 13.69 mg/kg/injection, schedule: Q04DX002 (ip), vehicle: water); 122 % of control (endpoint: median survival time, dose: 27.39 mg/kg/injection, schedule: Q04DX002 (ip), vehicle: water); 184 % of control and 197 % of control (endpoint: median survival time, dose: 41.08 mg/kg/injection, schedule: Q04HX004 (iv), vehicle: water); 154 % of control and 170 % of control (endpoint: median survival time, dose: 54.78 mg/kg/injection, schedule: Q04DX002 (ip), vehicle: water). The T/C (endpoint: median survival time, dose: 54.78 mg/kg/injection, schedule: Q04HX004 (iv), vehicle: water) is 204 % of control and 211 % of control; the T/C (endpoint: median survival time, dose: 109.6 mg/kg/injection, schedule: Q04DX002 (ip), vehicle: water) was 208 % of control.
Regarding `c1ccc([I+]c2ccccc2)cc1`, the T/C by setting is: (endpoint: mean survival time, dose: 0.65 mg/kg/injection, schedule: Q01DX009 (ip), vehicle: saline with Tween-80) 98 % of control; (endpoint: mean survival time, dose: 1.3 mg/kg/injection, schedule: Q01DX009 (ip), vehicle: saline with Tween-80) 98 % of control; (endpoint: mean survival time, dose: 2.5 mg/kg/injection, schedule: Q01DX009 (ip), vehicle: saline sonified) 103 % of control; (endpoint: mean survival time, dose: 2.5 mg/kg/injection, schedule: Q01DX009 (ip), vehicle: saline with Tween-80) 98 % of control; (endpoint: mean survival time, dose: 2.5 mg/kg/injection, schedule: Q04DX003 (ip), vehicle: saline with Tween-80) 95 % of control; (endpoint: mean survival time, dose: 5.0 mg/kg/injection, schedule: Q01DX009 (ip), vehicle: saline sonified) 94 % of control. Besides, the T/C reads like this: (endpoint: mean survival time, dose: 5.0 mg/kg/injection, schedule: Q04DX003 (ip), vehicle: saline with Tween-80) 104 % of control; (endpoint: mean survival time, dose: 5.0 mg/kg/injection, schedule: Q04DX003 (ip), vehicle: saline) 98 % of control; (endpoint: mean survival time, dose: 10.0 mg/kg/injection, schedule: Q04DX003 (ip), vehicle: saline with Tween-80) 103 % of control; (endpoint: mean survival time, dose: 10.0 mg/kg/injection, schedule: Q04DX003 (ip), vehicle: saline) 97 % of control; (endpoint: mean survival time, dose: 20.0 mg/kg/injection, schedule: Q04DX003 (ip), vehicle: saline) 115 % of control.
For the compound `C1Cn2nnnc2N1`, the T/C is, setting by setting: (endpoint: mean survival time, dose: 100.0 mg/kg/injection, schedule: Q04DX003 (ip), vehicle: saline) 103 % of control; (endpoint: mean survival time, dose: 200.0 mg/kg/injection, schedule: Q04DX003 (ip), vehicle: saline) 103 % of control; (endpoint: mean survival time, dose: 400.0 mg/kg/injection, schedule: Q04DX003 (ip), vehicle: saline) 94 % of control.
`CCOC(=O)NC(=O)O`: the T/C is 114 % of control under setting [4], 103 % of control under setting [5] and 97 % of control under setting [6].
As to `CC1(C)C2CCC1(C)C(OCCCN=C(N)CSS(=O)(=O)O)C2` (stereo not drawn), the T/C is, setting by setting: (endpoint: mean survival time, dose: 9.4 mg/kg/injection, schedule: Q04DX002 (ip), vehicle: saline with Tween-80) 95 % of control; (endpoint: mean survival time, dose: 18.7 mg/kg/injection, schedule: Q04DX002 (ip), vehicle: saline with Tween-80) 109 % of control; (endpoint: mean survival time, dose: 37.5 mg/kg/injection, schedule: Q04DX002 (ip), vehicle: saline with Tween-80) 112 % of control.
As to `CCOC(=O)C(Br)(C(=O)OCC)C(c1ccccc1)c1ccccc1`, the T/C under setting [10] is 98 % of control, the T/C under setting [11] is 89 % of control and the T/C under setting [12] is 93 % of control.
Take `COc1ccc(OC)c(-c2cn(C3CC(O)C(CO)O3)c(=O)[nH]c2=O)c1` (stereo not drawn): the T/C is 100 % of control (endpoint: median survival time, dose: 12.5 mg/kg/injection, schedule: Q01DX005 (ip), vehicle: water); 102 % of control (endpoint: median survival time, dose: 25.0 mg/kg/injection, schedule: Q01DX005 (ip), vehicle: water); 97 % of control (endpoint: median survival time, dose: 50.0 mg/kg/injection, schedule: Q01DX005 (ip), vehicle: water); 102 % of control (endpoint: median survival time, dose: 100.0 mg/kg/injection, schedule: Q01DX005 (ip), vehicle: water); 98 % of control (endpoint: median survival time, dose: 200.0 mg/kg/injection, schedule: Q01DX005 (ip), vehicle: water).
`CCCCC(C)(C)C`: the T/C runs as follows: under setting [10], 99 % of control; under setting [11], 99 % of control; under setting [12], 114 % of control.
As to `c1ccc(-c2oc(-c3ccccc3)c3c(-c4ccccc4)cccc23)cc1`, the T/C was 90 % of control under setting [1], 87 % of control under setting [2] and 87 % of control under setting [3].
For `NC1=CC(=O)c2ccccc2C1=O`, the T/C under setting [13] is 96 % of control and the T/C under setting [14] was 100 % of control.
As for `COc1ccc(COC(=O)Oc2ccccc2)cc1OC`, the T/C was 93 % of control under setting [2]; 101 % of control under setting [3]; 96 % of control (endpoint: mean survival time, dose: 400.0 mg/kg/injection, schedule: Q04DX002 (ip), vehicle: saline with Tween-80).
As to `CCCCC(Sc1n[nH]c(=O)[nH]c1=O)C(=O)OCC` (stereo not drawn), the T/C by setting is: (endpoint: mean survival time, dose: 12.5 mg/kg/injection, schedule: Q01DX005 (ip), vehicle: distilled water + Tween-80) 96 % of control; (endpoint: mean survival time, dose: 25.0 mg/kg/injection, schedule: Q01DX005 (ip), vehicle: distilled water + Tween-80) 100 % of control; (endpoint: mean survival time, dose: 50.0 mg/kg/injection, schedule: Q01DX005 (ip), vehicle: distilled water + Tween-80) 96 % of control; (endpoint: mean survival time, dose: 100.0 mg/kg/injection, schedule: Q01DX005 (ip), vehicle: distilled water + Tween-80) 103 % of control; (endpoint: mean survival time, dose: 200.0 mg/kg/injection, schedule: Q01DX005 (ip), vehicle: distilled water + Tween-80) 97 % of control.
Turning to `O=P(c1ccccc1)(c1ccccc1)c1ccccc1`, the T/C runs as follows: under setting [14], 97 % of control; under setting [10], 97 % of control; (endpoint: mean survival time, dose: 200.0 mg/kg/injection, schedule: Q01DX009 (ip), vehicle: saline with Tween-80) 95 % of control; under setting [11], 100 % of control; (endpoint: mean survival time, dose: 400.0 mg/kg/injection, schedule: Q01DX009 (ip), vehicle: saline with Tween-80) 100 % of control.
With `CN(Cc1cnc2nc(N)nc(N)c2n1)c1c(Cl)cc(C(=O)NC(CCC(=O)O)C(=O)O)cc1Cl` (stereo not drawn), the T/C (endpoint: mean survival time, dose: 44.0 mg/kg/injection, schedule: Q01DX009 (ip), vehicle: sodium bicarbonate) is 224 % of control; the T/C (endpoint: mean survival time, dose: 67.0 mg/kg/injection, schedule: Q01DX009 (ip), vehicle: sodium bicarbonate) was 256 % of control; the T/C (endpoint: mean survival time, dose: 100.0 mg/kg/injection, schedule: Q01DX009 (ip), vehicle: sodium bicarbonate) is 193 % of control; the T/C (endpoint: mean survival time, dose: 133.0 mg/kg/injection, schedule: Q01DX009 (ip), vehicle: sodium bicarbonate) is 170 % of control; the T/C (endpoint: mean survival time, dose: 150.0 mg/kg/injection, schedule: Q01DX009 (ip), vehicle: sodium bicarbonate) is 116 % of control; the T/C (endpoint: mean survival time, dose: 160.0 mg/kg/injection, schedule: Q01DX009 (ip), vehicle: sodium bicarbonate) is 123 % of control. The T/C is 123 % of control (endpoint: median survival time, dose: 125.0 mg/kg/injection, schedule: Q01DX009 (ip), vehicle: sodium bicarbonate) and 112 % of control (endpoint: median survival time, dose: 150.0 mg/kg/injection, schedule: Q01DX009 (ip), vehicle: sodium bicarbonate).
As for `C/C(=N/NC(N)=S)c1ccc2ccccc2c1`, the T/C by setting is: under setting [7], 103 % of control; under setting [8], 115 % of control; under setting [9], 122 % of control; under setting [13], 89 % of control.
